Results taken from patent publication EP4796557A1, “POLYPEPTIDE, BIOACTIVE CONJUGATE, AND PREPARATION METHOD THEREFOR AND USE THEREOF” (priority 2023, dated 2025).
Square brackets hold non-standard residues; d marks the D form. Peptide text beside a SMILES is read from it. Cit = NC(=O)NCCC[C@H](N)C(=O)O

Columns and labels:
MMP2 = molecular target: T1, MMP2 (Homo sapiens, UniProt P08253); experiment: Enzymolysis assay of polypeptides by MMP2 (RP-HPLC); type: biochemical; details: test polypeptide 100 µmol, activated MMP2, 37°C, 4 h
T1 sequence (P08253 110-660): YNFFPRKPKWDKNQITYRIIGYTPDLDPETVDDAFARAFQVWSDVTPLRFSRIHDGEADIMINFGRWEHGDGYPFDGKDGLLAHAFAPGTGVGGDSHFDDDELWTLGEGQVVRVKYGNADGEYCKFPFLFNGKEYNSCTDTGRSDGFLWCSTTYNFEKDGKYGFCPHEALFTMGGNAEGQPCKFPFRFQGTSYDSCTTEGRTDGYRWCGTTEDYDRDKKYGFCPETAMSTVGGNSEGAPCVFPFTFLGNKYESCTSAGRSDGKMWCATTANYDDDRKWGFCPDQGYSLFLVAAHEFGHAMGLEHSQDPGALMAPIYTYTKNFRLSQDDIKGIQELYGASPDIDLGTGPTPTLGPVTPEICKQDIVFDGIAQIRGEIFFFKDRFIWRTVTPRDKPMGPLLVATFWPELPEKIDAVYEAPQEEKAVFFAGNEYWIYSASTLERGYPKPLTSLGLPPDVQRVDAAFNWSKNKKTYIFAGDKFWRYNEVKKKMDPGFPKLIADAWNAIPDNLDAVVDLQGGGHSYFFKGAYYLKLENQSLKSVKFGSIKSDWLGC
Protocol: (§1) First, MMP2 or MMP9 enzyme solution having a final concentration of 200 µg/mL was mixed with 4 mM APMA at a ratio of 1:1, placed in a 37°C water bath and incubated for 24 h to activate the MMP2 or MMP9 enzyme solution. Subsequently, the test polypeptide having a final concentration of 100 µmol was incubated with the activated MMP2 or MMP9 enzyme solution in a 37°C water bath for 4 h. After the reaction was complete, an equal volume of acetonitrile solution was added thereto, followed by RP-HPLC analysis.
(§2) The enzymolysis efficiency of the polypeptide was calculated based on the peak areas of the target peak before and after enzymolysis. The formula is as follows: Enzymolysis efficiency = […] [formula]

MMP9 = MMP9 (Homo sapiens, UniProt P14780); experiment: Enzymolysis assay of polypeptides by MMP9 (RP-HPLC); type: biochemical; details: polypeptide 100 µmol with activated MMP9, 37°C, 4 h, RP-HPLC peak areas
Chain of MMP9 (P14780 107-707 limits assumed, species assumed): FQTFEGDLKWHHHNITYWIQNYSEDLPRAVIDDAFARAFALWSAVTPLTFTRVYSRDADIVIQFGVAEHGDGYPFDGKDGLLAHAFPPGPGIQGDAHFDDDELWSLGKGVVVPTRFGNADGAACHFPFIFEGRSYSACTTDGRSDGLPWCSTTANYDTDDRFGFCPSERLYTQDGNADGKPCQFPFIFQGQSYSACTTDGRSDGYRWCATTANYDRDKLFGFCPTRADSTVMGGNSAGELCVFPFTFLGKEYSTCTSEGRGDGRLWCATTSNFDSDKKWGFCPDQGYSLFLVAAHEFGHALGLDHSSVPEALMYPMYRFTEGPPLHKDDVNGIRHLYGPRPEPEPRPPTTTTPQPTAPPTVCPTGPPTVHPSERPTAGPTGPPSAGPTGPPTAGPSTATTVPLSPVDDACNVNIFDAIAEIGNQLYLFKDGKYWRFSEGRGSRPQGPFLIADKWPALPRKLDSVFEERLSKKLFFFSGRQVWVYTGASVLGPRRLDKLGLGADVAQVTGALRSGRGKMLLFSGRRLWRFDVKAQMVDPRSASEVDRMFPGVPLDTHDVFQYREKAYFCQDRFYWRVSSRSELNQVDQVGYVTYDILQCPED
Protocol: as §1, §2

SMILES | Enzymolysis efficiency (%) (MMP2) | Enzymolysis efficiency (%) (MMP9)
CC(=O)N[C@@H](Cc1c[nH]cn1)C(=O)N[C@H](C(=O)N[C@@H](CC(C)C)C(=O)N[C@@H](CC(N)=O)C(=O)N[C@@H](CC(C)C)C(=O)N[C@H](C(=O)N[C@@H](CCCNC(N)=O)C(N)=O)C(C)C)C(C)C [Compound 1-P2] (Ac-HVLNLV[Cit]-NH2) | 14.28 | 
CC(=O)N[C@H](C(=O)N1CCC[C@H]1C(=O)N[C@@H](CC(C)C)C(=O)N[C@@H](CO)C(=O)N[C@@H](CC(C)C)C(=O)N[C@H](C(=O)N[C@@H](CCCNC(N)=O)C(N)=O)C(C)C)C(C)C [Compound 1-P3] (Ac-VPLSLV[Cit]-NH2) | 49.85 | 51.44
CC[C@H](C)[C@H](NC(C)=O)C(=O)N1CCC[C@H]1C(=O)N[C@H](C(=O)N[C@@H](CO)C(=O)N[C@@H](CC(C)C)C(=O)N[C@H](C(=O)N[C@@H](CCCNC(N)=O)C(N)=O)C(C)C)C(C)C [Compound 1-P4] (Ac-IPVSLV[Cit]-NH2) | 21.87 | 18.84
CC(=O)NCC(=O)N1CCC[C@H]1C(=O)N[C@@H](CC(C)C)C(=O)N[C@@H](CO)C(=O)N[C@@H](CC(C)C)C(=O)N[C@H](C(=O)N[C@@H](CCCNC(N)=O)C(N)=O)C(C)C [Compound 1-P5] (Ac-GPLSLV[Cit]-NH2) | 52.03 | 54.80
CC(=O)NCC(=O)N1CCC[C@H]1C(=O)N[C@@H](C)C(=O)N[C@@H](CO)C(=O)N[C@@H](CC(C)C)C(=O)N[C@H](C(=O)N[C@@H](CCCNC(N)=O)C(N)=O)C(C)C [Compound 1-P6] (Ac-GPASLV[Cit]-NH2) | 86.72 | 28.79
CC(=O)NCC(=O)N1CCC[C@H]1C(=O)N[C@@H](C)C(=O)NCC(=O)N[C@@H](CC(C)C)C(=O)N[C@H](C(=O)N[C@@H](CCCNC(N)=O)C(N)=O)C(C)C [Compound 1-P7] (Ac-GPAGLV[Cit]-NH2) | 90.29 | 25.55
CC(=O)NCC(=O)N1CCC[C@H]1C(=O)N[C@@H](CCC(N)=O)C(=O)NCC(=O)N[C@@H](CC(C)C)C(=O)N[C@H](C(=O)N[C@@H](CCCNC(N)=O)C(N)=O)C(C)C [Compound 1-P8] (Ac-GPQGLV[Cit]-NH2) | 54.71 | 29.30
CC(=O)NCC(=O)N1CCC[C@H]1C(=O)N[C@@H](CC(C)C)C(=O)NCC(=O)N[C@@H](CC(C)C)C(=O)N[C@H](C(=O)N[C@@H](CCCNC(N)=O)C(N)=O)C(C)C [Compound 1-P9] (Ac-GPLGLV[Cit]-NH2) | 81.75 | 68.34
CC(=O)NCC(=O)N1CCC[C@H]1C(=O)N[C@@H](CO)C(=O)NCC(=O)N[C@@H](CC(C)C)C(=O)N[C@H](C(=O)N[C@@H](CCCNC(N)=O)C(N)=O)C(C)C [Compound 1-P10] (Ac-GPSGLV[Cit]-NH2) | 75.95 | 27.93
CC(=O)NCC(=O)N1CCC[C@H]1C(=O)N[C@@H](CCCNC(=N)N)C(=O)NCC(=O)N[C@@H](CC(C)C)C(=O)N[C@H](C(=O)N[C@@H](CCCNC(N)=O)C(N)=O)C(C)C [Compound 1-P11] (Ac-GPRGLV[Cit]-NH2) | 86.82 | 81.51
CC(=O)NCC(=O)N1CCC[C@H]1C(=O)N[C@@H](C)C(=O)N[C@@H](C)C(=O)N[C@@H](CC(C)C)C(=O)N[C@H](C(=O)N[C@@H](CCCNC(N)=O)C(N)=O)C(C)C [Compound 1-P12] (Ac-GPAALV[Cit]-NH2) | 38.94 | 20.93
CC(=O)NCC(=O)N1CCC[C@H]1C(=O)N[C@@H](CO)C(=O)N[C@@H](C)C(=O)N[C@@H](CC(C)C)C(=O)N[C@H](C(=O)N[C@@H](CCCNC(N)=O)C(N)=O)C(C)C [Compound 1-P13] (Ac-GPSALV[Cit]-NH2) | 90.13 | 45.08
CC(=O)N1CCC[C@H]1C(=O)N[C@@H](CCCNC(=N)N)C(=O)NCC(=O)N[C@@H](CC(C)C)C(=O)N[C@H](C(=O)N[C@@H](CCCNC(N)=O)C(N)=O)C(C)C [Compound 2-P1, PRGLVCit] (Ac-PRGLV[Cit]-NH2) | 80.31 | 93.67
CC(=O)N1CCC[C@H]1C(=O)N[C@@H](CCCNC(=N)N)C(=O)N[C@@H](CO)C(=O)N[C@@H](CC(C)C)C(=O)N[C@H](C(=O)N[C@@H](CCCNC(N)=O)C(N)=O)C(C)C [Compound 2-P2] (Ac-PRSLV[Cit]-NH2) | 53.20 | 79.34
CC(=O)N1CCC[C@H]1C(=O)N[C@@H](CCCNC(=N)N)C(=O)N[C@@H](CC(N)=O)C(=O)N[C@@H](CC(C)C)C(=O)N[C@H](C(=O)N[C@@H](CCCNC(N)=O)C(N)=O)C(C)C [Compound 2-P3] (Ac-PRNLV[Cit]-NH2) | 66.36 | 97.39
CC(=O)N1CCC[C@H]1C(=O)N[C@@H](CCCNC(=N)N)C(=O)N1CCC[C@H]1C(=O)N[C@@H](CC(C)C)C(=O)N[C@H](C(=O)N[C@@H](CCCNC(N)=O)C(N)=O)C(C)C [Compound 2-P4] (Ac-PRPLV[Cit]-NH2) | 46.14 | 61.01
CC(=O)N1CCC[C@H]1C(=O)N[C@@H](CCCNC(N)=O)C(=O)NCC(=O)N[C@@H](CC(C)C)C(=O)N[C@H](C(=O)N[C@@H](CCCNC(N)=O)C(N)=O)C(C)C [Compound 2-P5] (Ac-P[Cit]GLV[Cit]-NH2) | 61.03 | 68.91
CC(=O)N1CCC[C@H]1C(=O)N[C@@H](CCCNC(N)=O)C(=O)N1CCC[C@H]1C(=O)N[C@@H](CC(C)C)C(=O)N[C@H](C(=O)N[C@@H](CCCNC(N)=O)C(N)=O)C(C)C [Compound 2-P6] (Ac-P[Cit]PLV[Cit]-NH2) | 36.21 | 36.08
CC(=O)NCC(=O)N1CCC[C@H]1C(=O)N[C@@H](CCCNC(=N)N)C(=O)N[C@@H](CO)C(=O)N[C@@H](CC(C)C)C(=O)N[C@H](C(=O)N[C@@H](CCCNC(N)=O)C(N)=O)C(C)C [Compound 2-P7] (Ac-GPRSLV[Cit]-NH2) | 62.64 | 77.95
CC(=O)NCC(=O)N1CCC[C@H]1C(=O)N[C@@H](CCCNC(=N)N)C(=O)N1CCC[C@H]1C(=O)N[C@@H](CC(C)C)C(=O)N[C@H](C(=O)N[C@@H](CCCNC(N)=O)C(N)=O)C(C)C [Compound 2-P8] (Ac-GPRPLV[Cit]-NH2) | 55.07 | 62.58
CC(=O)NCC(=O)N1CCC[C@H]1C(=O)N[C@@H](CCCNC(=N)N)C(=O)N[C@@H](CC(N)=O)C(=O)N[C@@H](CC(C)C)C(=O)N[C@H](C(=O)N[C@@H](CCCNC(N)=O)C(N)=O)C(C)C [Compound 2-P9] (Ac-GPRNLV[Cit]-NH2) | 77.00 | 100.00
CC(=O)NCC(=O)N1CCC[C@H]1C(=O)N[C@@H](CCCNC(N)=O)C(=O)NCC(=O)N[C@@H](CC(C)C)C(=O)N[C@H](C(=O)N[C@@H](CCCNC(N)=O)C(N)=O)C(C)C [Compound 2-P10] (Ac-GP[Cit]GLV[Cit]-NH2) | 71.24 | 80.34
CC(=O)NCC(=O)N1CCC[C@H]1C(=O)N[C@@H](CCCNC(N)=O)C(=O)N1CCC[C@H]1C(=O)N[C@@H](CC(C)C)C(=O)N[C@H](C(=O)N[C@@H](CCCNC(N)=O)C(N)=O)C(C)C [Compound 2-P11] (Ac-GP[Cit]PLV[Cit]-NH2) | 40.95 | 45.82
CC(=O)N[C@@H](Cc1c[nH]cn1)C(=O)N1CCC[C@H]1C(=O)N[C@@H](CCCNC(=N)N)C(=O)NCC(=O)N[C@@H](CC(C)C)C(=O)N[C@H](C(=O)N[C@@H](CCCNC(N)=O)C(N)=O)C(C)C [Compound 2-P12] (Ac-HPRGLV[Cit]-NH2) | 77.58 | 95.73
CC(=O)N[C@@H](Cc1c[nH]cn1)C(=O)N1CCC[C@H]1C(=O)N[C@@H](CCCNC(=N)N)C(=O)N[C@@H](CO)C(=O)N[C@@H](CC(C)C)C(=O)N[C@H](C(=O)N[C@@H](CCCNC(N)=O)C(N)=O)C(C)C [Compound 2-P13] (Ac-HPRSLV[Cit]-NH2) | 57.42 | 81.06
